Literature values as cited in patent publication US9353109B2, “Flindersia alkaloids, derivatives and analogs: compositions and methods for producing the same” (UNIVERSITY OF HOUSTON SYSTEM, priority 2012, dated 2016).

System: chloroquine-resistant falciparum strains
Details: at concentrations that do not affect mammalian cells' viability

Row | Molecule | effectiveness toward chloroquine-resistant falciparum strains
1 | C[C@@H]1CC[C@H]2[C@@H](C)C(=O)O[C@@H]3O[C@@]4(C)CC[C@@H]1[C@]32OO4 [artemisinin, reference compound] | show effectiveness toward chloroquine-resistant falciparum strains
2 | CCN(CC)CCCC(C)Nc1ccnc2cc(Cl)ccc12 (stereo not shown) [chloroquine, reference compound] | show effectiveness toward chloroquine-resistant falciparum strains
3 | CNCCc1c(/C=C/[C@@]2(C)C[C@H](C=C(C)C)c3c(CCNC)c4ccccc4n32)[nH]c2ccccc12 [flinderole A] | show effectiveness toward chloroquine-resistant falciparum strains
4 | CC(C)=C[C@H]1C[C@](C)(/C=C/c2[nH]c3ccccc3c2CCN(C)C)n2c1c(CCN(C)C)c1ccccc12 [flinderole B] | show effectiveness toward chloroquine-resistant falciparum strains
5 | CC(C)=C[C@H]1C[C@@](C)(/C=C/c2[nH]c3ccccc3c2CCN(C)C)n2c1c(CCN(C)C)c1ccccc12 [flinderole C] | show effectiveness toward chloroquine-resistant falciparum strains
6 | CNCCc1c(C2C3C(C=C(C)CC3(C)C)c3c(CCNC)c4ccccc4n32)[nH]c2ccccc12 (stereo not shown) [isoborreverine] | show effectiveness toward chloroquine-resistant falciparum strains
7 | dimethylisoborreverine | show effectiveness toward chloroquine-resistant falciparum strains
